Assay results reported in US12595230B2, “Substituted 6,7-dihydro-5H-benzo[7]annulene compounds and their derivatives, processes for their preparation and therapeutic uses thereof” (Sanofi, priority 2020, dated 2026).

Molecular target: T1, ERα (Homo sapiens, UniProt P03372)
T1 construct: host or cells: MCF7
T1 sequence (P03372 1-595): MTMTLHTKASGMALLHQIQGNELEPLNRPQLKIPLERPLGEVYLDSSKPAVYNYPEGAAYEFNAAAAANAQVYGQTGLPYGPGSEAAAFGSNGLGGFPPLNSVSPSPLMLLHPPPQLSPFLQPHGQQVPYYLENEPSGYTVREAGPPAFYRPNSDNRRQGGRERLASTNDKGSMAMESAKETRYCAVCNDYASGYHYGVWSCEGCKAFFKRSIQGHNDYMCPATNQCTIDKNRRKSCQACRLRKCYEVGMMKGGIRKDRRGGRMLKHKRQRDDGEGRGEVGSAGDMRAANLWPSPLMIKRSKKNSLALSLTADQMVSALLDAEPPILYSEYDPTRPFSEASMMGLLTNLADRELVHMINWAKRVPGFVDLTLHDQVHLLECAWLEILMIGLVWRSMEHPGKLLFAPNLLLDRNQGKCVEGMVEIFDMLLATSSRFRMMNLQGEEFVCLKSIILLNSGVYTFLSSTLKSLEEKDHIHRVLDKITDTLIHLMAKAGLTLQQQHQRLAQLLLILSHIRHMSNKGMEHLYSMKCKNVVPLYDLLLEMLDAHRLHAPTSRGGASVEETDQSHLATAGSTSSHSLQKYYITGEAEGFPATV
Assay: Estrogen receptor degradation activity: breast cancer cell ERα in cell western assay (MCF7 cells)
Format: cell-based
Settings: for % Degradation At 0.3 μM: 4 hours, relative to fulvestrant 0.1 μM positive control; for DC50: 4 hours post compound addition, concentration which degrades 50% of the estrogen receptor, read-out: Degradation IC50
Procedure, shortened: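 Compounds were applied to MCF7 cells in stripped-serum, phenol red-free medium for 4 h at final 0.3–0.0000018 μM, with fulvestrant (0.1 μM) as control. Value: IC50 (nM) for 50% ERα degradation.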

% Degradation At 0.3 μM	DC50	SMILES
86%	300 pM	O=C(O)c1ccc2c(c1)CCCC(c1cccc(Cl)c1C(F)(F)F)=C2c1ccc(CC2CN(CCC(F)F)C2)cc1 [Example 280, 8-(3-chloro-2-(trifluoromethyl)phenyl)-9-(4-((1-(3,3-difluoropropyl)azetidin-3-yl)methyl)phenyl)-6,7-dihydro-5H-benzo[7]annulene-3-carboxylic acid]
91%	400 pM	O=C(O)c1ccc2c(c1)CCCC(c1cccc3c1CC3)=C2c1ccc(CC2CN(CCCF)C2)cc1 [Example 53, 8-(bicyclo[4.2.0]octa-1(6),2,4-trien-2-yl)-9-(4-((1-(3-fluoropropyl)azetidin-3-yl)methyl)phenyl)-6,7-dihydro-5H-benzo[7]annulene-3-carboxylic acid]
95%	1600 pM	COc1ccc(C2=C(c3ccc(CC4CN(CCCF)C4)cc3)c3ccc(C(=O)O)cc3CCC2)cn1 [Example 18, 9-(4-((1-(3-fluoropropyl)azetidin-3-yl)methyl)phenyl)-8-(6-methoxypyridin-3-yl)-6,7-dihydro-5H-benzo[7]annulene-3-carboxylic acid]
94%	600 pM	O=C(O)c1ccc2c(c1)CCCC(c1cccc(Cl)c1F)=C2c1ccc(CC2CN(CCCF)C2)cc1 [Example 32, 8-(3-chloro-2-fluorophenyl)-9-(4-((1-(3-fluoropropyl)azetidin-3-yl)methyl)phenyl)-6,7-dihydro-5H-benzo[7]annulene-3-carboxylic acid]
92%	1100 pM	Cl.O=C(O)c1ccc2c(c1)CCCC(c1ccc(Cl)c(Cl)c1)=C2c1ccc(CC2CN(CCCF)C2)cc1 [Example 207, 8-(3,4-dichlorophenyl)-9-(4-((1-(3-fluoropropyl)azetidin-3-yl)methyl)phenyl)-6,7-dihydro-5H-benzo[7]annulene-3-carboxylic acid hydrochloride]
90%	600 pM	O=C(O)c1ccc2c(c1)CCCC(c1ccc(F)cc1CC(F)(F)F)=C2c1ccc(CC2CN(CCCF)C2)cc1 [Example 272, 8-(4-fluoro-2-(2,2,2-trifluoroethyl)phenyl)-9-(4-((1-(3-fluoropropyl)azetidin-3-yl)methyl)phenyl)-6,7-dihydro-5H-benzo[7]annulene-3-carboxylic acid]
86%	6200 pM	Cc1ccc(C2=C(c3ccc(CC4CN(CCCF)C4)cc3)c3cc(F)c(C(=O)O)c(F)c3CCC2)c(Cl)c1 [Example 217, 8-(2-chloro-4-methylphenyl)-2,4-difluoro-9-(4-((1-(3-fluoropropyl)azetidin-3-yl)methyl)phenyl)-6,7-dihydro-5H-benzo[7]annulene-3-carboxylic acid]
81%	1200 pM	O=C(O)c1ccc2c(c1)CCCC(C1CC3CCC(C3)C1)=C2c1ccc(CC2CN(CCCF)C2)cc1 (centres unmarked) [Example 316, 8-(bicyclo[3.2.1]octan-3-yl)-9-(4-((1-(3-fluoropropyl)azetidin-3-yl)methyl)phenyl)-6,7-dihydro-5H-benzo[7]annulene-3-carboxylic acid]
88%	300 pM	Cc1ccc(C2=C(c3ccc(CC4CN(CCCF)C4)cc3)c3ccc(C(=O)O)cc3CCC2)c(F)c1F.Cl [Example 210, 8-(2,3-difluoro-4-methylphenyl)-9-(4-((1-(3-fluoropropyl)azetidin-3-yl)methyl)phenyl)-6,7-dihydro-5H-benzo[7]annulene-3-carboxylic acid hydrochloride]
90%	300 pM	O=C(O)c1ccc2c(c1)CCCC(c1cc(F)cc(F)c1)=C2c1ccc(CC2CN(CCCF)C2)cc1 [Example 266, 8-(3,5-difluorophenyl)-9-(4-((1-(3-fluoropropyl)azetidin-3-yl)methyl)phenyl)-6,7-dihydro-5H-benzo[7]annulene-3-carboxylic acid]
